Measurements taken from ChEMBL document CHEMBL1201862, “PubChem BioAssay data set” (2004).
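48-hour exposure; five concentrations; linearly interpolated endpoints. Abbreviation: GI50, concentration required for 50% inhibition of growth.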 Activity calls are given as the source filed them. Cut-off read from the data, not from the text of the source: active = GI50 up to about 1.1 µM and inactive = higher.

Assays:
Assay in all cases: NCI tumour cell line growth inhibition, 48 h
[1] = system: DMS-114
[2] = system: DLD-1
[3] = system: RXF 631
[4] = system: XF498
[5] = system: M19-MEL
[6] = system: SNB-78
[7] = system: HOP-18
[8] = system: MCF7
[9] = system: BT-549

| SMILES | GI50 [1] | GI50 [2] | GI50 [3] | GI50 [4] | GI50 [5] | GI50 [6] | GI50 [7] | GI50 [8] | GI50 [9] |
| --- | --- | --- | --- | --- | --- | --- | --- | --- | --- |
| COCC1C(=O)c2cc3c(cc2C12C=CC1(C=C2)OCCO1)OCO3 (stereo not given) | 2.99 µM (inactive) | 2.22 µM (inactive) | 4.59 µM (inactive) | 5.38 µM (inactive) | 2.93 µM (inactive) |  |  |  |  |
| O=C(Cc1csc(-c2nc(CC(=O)NNc3ccccc3)cs2)n1)NNc1ccccc1 | 25.6 µM (inactive) | 49 µM (inactive) | > 10 µM (inactive) | > 100 µM (inactive) | > 100 µM (inactive) | > 100 µM (inactive) | > 100 µM (inactive) |  |  |
| N#CC1CCCCOCCOCCOCCOCCOCCCCCC1=O (stereo not given) | > 100 µM (inactive) | > 100 µM (inactive) | > 100 µM (inactive) |  | > 100 µM (inactive) | > 100 µM (inactive) | > 100 µM (inactive) |  |  |
| COC(=O)/C(C#N)=C1\CCC(Nc2cccc(C(F)(F)F)c2)N1C (stereo not given) | > 10 µM (inactive) | 57.5 µM (inactive) |  | 66.2 µM (inactive) |  | > 100 µM (inactive) | > 100 µM (inactive) |  |  |
| Cc1cc(Br)cc(C)c1NC(=O)C(=O)C(C(=O)c1ccncc1)C1OC(=O)c2ccccc21 (stereo not given) | > 100 µM (inactive) | > 100 µM (inactive) | > 100 µM (inactive) | > 100 µM (inactive) |  | > 100 µM (inactive) | > 100 µM (inactive) |  |  |
| CCCCCCC(=O)OC[n+]1ccc2c(C)c3[nH]c4ccccc4c3c(C)c2c1 | 1.08 µM (active) | 0.4 µM (active) | 2.54 µM (inactive) |  | 1.04 µM (active) | 1.09 µM (active) |  |  |  |
| CCOC1=NC(=O)CC(c2ccccc2)S1 (stereo not given) |  | 95.5 µM (inactive) |  | > 100 µM (inactive) | > 100 µM (inactive) | > 100 µM (inactive) |  |  |  |
| O=C(NO)C12C3C4C1C1C2C3C41C(=O)NO (stereo not given) | > 100 µM (inactive) | > 100 µM (inactive) |  |  | > 100 µM (inactive) | > 100 µM (inactive) | > 100 µM (inactive) |  |  |
| COCN1COCN(C)C1=O | > 100 µM (inactive) | > 100 µM (inactive) |  | > 100 µM (inactive) | > 100 µM (inactive) | > 100 µM (inactive) | > 100 µM (inactive) |  |  |
| CC[C@@]1(O)CC(OC2CC(N3CCOCC3)C(O)C(C)O2)c2c(O)c3c(c(O)c2[C@H]1O)C(=O)c1cccc(O)c1C3=O (stereo not given in full) | 0.0935 µM (active) | 0.143 µM (active) |  | 0.0493 µM (active) | 0.101 µM (active) | 0.305 µM (active) | 0.237 µM (active) | 0.0293 µM (active) | 0.0508 µM (active) |
| C[C@@H](NC1CCC[C@@H]1O)c1ccccc1 (stereo not given in full) | > 100 µM (inactive) | > 100 µM (inactive) |  | > 100 µM (inactive) | > 100 µM (inactive) | > 100 µM (inactive) | > 100 µM (inactive) |  |  |
| CCOC(=O)Nc1ccc(S(=O)(=O)OC)cc1.CCOC(=O)Nc1ccc(S(=O)(=O)OC)cc1.Nc1ncnc2c1ncn2C1OC(CO)C(O)C1O (stereo not given) | 18 µM (inactive) | 33.1 µM (inactive) | > 100 µM (inactive) | 92.3 µM (inactive) | 21.9 µM (inactive) | > 100 µM (inactive) | > 100 µM (inactive) |  |  |
| CSc1c([S+](C)[O-])[nH]c2cc(Br)cc(Br)c12 (stereo not given) |  | 16.5 µM (inactive) |  |  | 29.2 µM (inactive) | 19.3 µM (inactive) | 39.5 µM (inactive) |  |  |
| CC(=O)Oc1ccc(O)c(O)c1C/C=C(\C)CC/C=C(\C)CC/C=C(\C)CCC=C(C)C [TETRAPRENYLPHENOLSUILLIN] | 0.35 µM (active) | 0.34 µM (active) |  | 0.357 µM (active) | 0.393 µM (active) | 0.272 µM (active) | 0.187 µM (active) |  |  |
